Laboratory results as given in publication PMC3924328, “Structure of the S100A4/myosin-IIA complex” (BMC Structural Biology, 2013).
The star is where a group is joined. FITC = O=C1OC2(c3ccc(O)cc3Oc3cc(O)ccc32)c2ccc(NC(=S)*)cc21; Ahx = NCCCCCC(=O)O

Key:
[1] = tested on: myosin-IIA rods (MIIA^1339−1960); assay: Promotion of disassembly assay, assembled myosin-IIA rods; type: biochemical; details: one S100A4Δ8C dimer per myosin-IIA rod; 1.5 μM S100A4 dimer, 1.5 μM rod dimer; 20 mM Tris–HCl pH 7.5, 150 mM NaCl, 1 mM DTT, 2 mM MgCl2, 0.5 mM CaCl2, 0.02% NaN3; 2 hr, 22°C; SDS-PAGE densitometry; two independent experiments
Experimental: Assays comparing the ability of wild-type and the Δ8C S100A4 to depolymerize assembled myosin-IIA rods were performed as described in Li et al., using 1.5 μM S100A4 dimer and 1.5 μM myosin-IIA rod dimer in 20 mM Tris–HCl pH 7.5, 150 mM NaCl, 1 mM DTT, 2 mM MgCl2, 0.5 mM CaCl2, and 0.02% NaN3. Reaction mixtures (100 μl) were incubated for 2 hr at 22°C and then centrifuged at 80,000 rpm (175000 g) for 10 min at 25°C in a TL-100 ultracentrifuge (Beckman). Samples of the reaction mixtures and supernatants were separated on a 12% Tris-Tricine SDS-polyacrylamide gel. Coomassie-stained gels were scanned and the extent of myosin-IIA polymerization was quantified by densitometry and analyzed with the ImageQuant version 5.2.

[2] = tested on: Ca^2+-S100A4; assay: Paramagnetic relaxation, titration with spin-labeled MIIA^1893-1923-Cys-Proxyl; type: binding, human; details: HSQC, 37°C, pH 6.5
Experimental: The beads containing the immobilized TCEP and other particulates were removed using a 0.45 μm Nanosep MF GHP centrifugal device (Pall Life Sciences) before the addition of 61 μl freshly prepared 50 mg/ml 3-maleimido-Proxyl (Sigma-Aldrich) in DMSO.
(§1) HSQC NMR data were collected at 37°C with a 600 MHz (600.13 MHz for protons) Bruker DMX NMR spectrometer equipped with pulsed-field gradients, four frequency channels, and a triple resonance, z-axis gradient cryogenic probe, Data were processed with NMRPipe, and proton chemical shifts were reported with respect to the H2O or HDO signal taken as 4.658 ppm relative to external trimethylsilylpropionic acid (0.0 ppm). The ^15 N chemical shifts were indirectly referenced as described previously using the following ratio of the zero-point frequency: 0.10132905 for ^15 N to ^1H [56].

[3] = target: S100A4; set-up: method as in PMID 18410126; details: ref [4]; cited from earlier work
[4] = target: T1, S100A4Δ8C (Homo sapiens, UniProt P26447); assay: NMR titration of MIIA^1908-1923 into ^15N-labeled Ca^2+-bound S100A4Δ8C; type: binding
T1 construct: unable to crystallize the wild-type full-length S100A4 with myosin-IIA peptides; made in house; host or cells: E. coli BL21(DE3)*
Experimental: as §1

[5] = tested on: S100A4; details: S100A4 bound to MIIA^1908-1923; ref [4]; cited from earlier work
Text: In this regard, we examined whether this small peptide was sufficient to induce what is termed the “final folding” event that occurs upon S100 protein-target complex formation. […] As found for other wild-type and mutant S100 proteins [[6] ...

[6] = submicromolar concentrations; ref [4], [27], [30]; cited from earlier work
Experimental: Given the similarity in the molecular weights of the S100A4 and MIIA^1851-1960 dimers, the S100A4/MIIA^1851-1960 complex was further evaluated in sedimentation velocity experiments where MIIA^1851-1960 was added to S100A4 at increasing molar ratios. […] At a molar ratio of 0.5:1 MIIA^1851-1960 dimer to S100A4 dimer there was a shift in the S val ...

[7] = target: T2, S100A4 (Homo sapiens, UniProt P26447); assay: Sedimentation velocity of MIIA^1851-1960, S100A4 and S100A4/MIIA^1851-1960 mixtures; type: physicochemical
T2 construct: heteronuclear single quantum coherence spectrum (HSQC) of full-length Ca^2+-S100A4 at 600 MHz; made in house; host or cells: E. coli, M9 medium with 15N NH4Cl (BL21(DE3)* is named for the unlabelled protein)
Experimental: Sedimentation equilibrium and velocity experiments were conducted at 22°C in a Beckman XL-I analytical ultracentrifuge using a Ti60 rotor and Raleigh interference optics. Wild-type S100A4 and MIIA^1851-1960 were dialyzed into 20 mM Tris pH 7.5, 150 mM KCl, 0.5 mM CaCl2, 1 mM TCEP and 0.02% NaN3 and clarified by ultracentrifugation at 80,000 rpm for 10 minutes at 4°C in TLA 120.2 rotor. Sedimentation equilibrium analysis of MIIA^1851-1960 and S100A4 was conducted in six channel centerpieces by sequentially equilibrating the protein at three concentrations for 24 hr at 12,000, 20,000 and 28,000 rpm and globally analyzing the data using HeteroAnalysis v1.1.44 (James L. Cole and Jeffrey W. Lary). The sedimentation velocity experiments were conducted at 53,000 rpm using double sector centerpieces and analyzed using DCDT + v2.4.0 [57, 58]. The best-fit parameters and their 95% joint confidence intervals are reported. The calculated masses of the wild-type S100A4 and MIIA^1851-1960 monomers are 11,597.3 and 12,397.5 Da, respectively. Values of ν-bar = 0.715 for S100A4/MIIA^851-1960 and 0.735 for S100A4, ρ = 1.0059, μ = 1.00586 cp were calculated using Sednterp v1.06 (Hayes, B., T. Laue & J. Philo, Sedimentation Interpretation Program. 2003, University of New Hampshire) from the amino acid and buffer compositions, respectively.

[8] = tested on: myosin-IIA rods; details: assembly-competent myosin-II rod constructs; ref [19], [20]; cited from earlier work
Text: Each heavy chain is comprised of an N-terminal motor domain that contains the ATP- and actin-binding sites, an intermediate rod domain that dimerizes to form an α-helical coiled-coil and a C-terminal tailpiece.

[9] = target: T1, S100A4Δ8C; assay: Fluorescence anisotropy, FITC-MIIA^1904-1927 binding to S100A4Δ8C; details: 22°C, 5 mM EGTA, data not shown
Experimental: Fluorescence anisotropy measurements were performed at 22°C using a Fluoromax-3-spectrofluorometer (Jobin Yvon). Individual reactions (200 μl) contained 50 nM FITC-MIIA^1904-1927 and 0–30 μM S100A4Δ8C dimer in 20 mM Tris pH 7.5, 150 mM KCl, 1 mM DTT, 0.02% NaN3, 0.5 mM CaCl2 and 0.5 mg/ml BSA. For competition anisotropy measurements individual reactions contained 50 nM FITC-MIIA^1904-1927, 0.3 μM S100A4 dimer and 0–10 μM MIIA^1851-1960 dimer as described above. Controls included experiments representing maximum anisotropy (15 μM wild-type S100A4 and S100A4Δ8C, 50 nM FITC-MIIA^1904-1927 and calcium) and minimum anisotropy (in the absence of S100A4 and in the presence of S100A4 and 5 mM EGTA). Anisotropy was measured using excitation and emission wavelengths of 490 nm and 520 nm, respectively. Measurements were acquired at the magic angle of 55° between the vectors of polarization of the excitation and emission light using a G factor of 0.634 as determined previously for FITC on this instrument. For measurements of S100A4Δ8C binding, data from two independent experiments were plotted using Graphpad Prism v5, and the dissociation constant was calculated by fitting to a single site saturation binding equation allowing for a floating Ymin value. […]

[10] = sedimentation velocity, 22°C, protein alone

T2 sequence (P26447 2-101 limits assumed, one chain of several): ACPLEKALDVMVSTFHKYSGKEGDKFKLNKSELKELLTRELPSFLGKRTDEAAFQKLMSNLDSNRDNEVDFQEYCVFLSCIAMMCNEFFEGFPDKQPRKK
T1 sequence (P26447 2-93, stated change not applied): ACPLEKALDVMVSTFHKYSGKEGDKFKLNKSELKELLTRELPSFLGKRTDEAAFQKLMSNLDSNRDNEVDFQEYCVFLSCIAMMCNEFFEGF

With “S100A4Δ8C: S100A4 deletion mutant (deletion of the C-terminal eight amino acids)” the Myosin-IIA filaments disassembled [1] was “approximately 85%”.
In the case of “MIIA^1893-1923-Cys-Proxyl: MIIA^1893-1923-Cys labeled with 3-maleimido-Proxyl spin label”, the “Residues with large reductions in cross-peak intensities” value ([2]; 2.6 μM spin-labeled peptide) was “loop 1 (Asp25), the beginning of helix 3 (Asp51, Glu52) and in the C-terminal loop (Lys100)” and the “Location of peptide C-terminus on S100A4 by paramagnetic relaxation” value ([2]; 2.6 and 5.3 μM spin-labeled peptide) was “near residues in helix 3 and the hinge (Leu46, Gly47, Asp51, Glu52”.
For “Ac-RRKLQRELEDATETADAMNREVSSLKNKLRR-CONH2 [MIIA^1893-1923]”, the “Dissociation constant, in words” value [3] is listed as “in the nanomolar range”.
For “Ace-DAMNREVSSLKNKLRR-CONH2 [MIIA^1908-1923]”, the “Binding orientation to S100A4Δ8C versus wild-type S100A4” value ([4]; 37°C, pH 6.5, 10 mM CaCl2) is listed as “very similar structure/orientation in solution as observed for wild-type S100A4”, the “Exchange broadening of Ca^2+-bound S100A4Δ8C upon complex formation” value ([4]; data not shown) is listed as “exchange broadening completely disappeared” and the “Ca^2+-binding affinity of S100A4 when peptide bound” value [5] is listed as “higher Ca^2+-binding affinity”.
For “S100A4: untagged, full-length human S100A4”, the Dimer stability [6] is listed as “thermostable dimer at submicromolar concentrations”, the “Effect of S100A4 binding on dimeric myosin-IIA construct” value ([7]; longer, dimeric myosin-IIA construct) is listed as “dissociates the two myosin-IIA polypeptide chains to form a complex composed of one S100A4 dimer and a single myosin-IIA polypeptide chain” and the “Peak 1 S20,w” value ([7]; sedimentation velocity, 22°C, 53,000 rpm, protein alone, 20 mM Tris pH 7.5, 150 mM KCl, 0.5 mM CaCl2, 1 mM TCEP, 0.02% NaN3) is listed as 1.90 ± 0.01. For the same substance, the “Peak 1 MW” value [7, 10] was 21.2 ± 0.3 kDa, the S value [7, 10] was 1.9 S and the “[Peak 1] (green), relative amount of plateau concentrations” value [7, 10] was 2.00 ± 0.02. For the same substance, the Myosin-II isoform preference [8] was “preferentially recognizes and disassembles myosin-IIA rods”.
With “{FITC-Ahx}-TETADAMNREVSSLKNKLRRGDLP-NH2 [FITC-MIIA^1904-1927]” the “Binding to S100A4Δ8C in the presence of EGTA” value [9] was “no binding was observed”.
